The values below come from patent US7662767B2, “Polynucleotide intercalator interceptors and inhibitors” (Materials Evolution and Development USA, Inc., priority 2000, dated 2010).

Several values for one entry are separate records, joined by “and”; a condition that tells them apart may be missing. Equal values may be shown once.

This test is described as follows: Acridine orange self-association (AO-AO dimer), spectrofluorometry λem 530 nm. The conditions noted are these: hydrochloride. Type of test: binding. How it is done: Association constants were calculated using a modification of an equation described by Zaini et al. (1999) to determine equilibrium constants for weakly bound complexes by absorbance spectrophotometry. By definition K=Xd/(Xm* Xm), where K is the binding constant Kassoc, Xd is the concentration of the AO dimer and Xm is the concentration of the AO monomer. Conservation of mass gives Xt=Xm+2*Xd, where Xt is the total concentration of AO in solution. Rearranging the conservation of mass equation gives Xm=Xt−2*Xd, and substituting into the equation for Kassoc and rearranging gives Equation 4: Kassoc(Xt*Xt−4*Xt*Xd+4*Xd*Xd)−Xd=0 EQUATION 4:
Rearranging gives: Xd*Xd−(Xt+1/(4*.Kassoc)*Xd+Xt*Xt/4=0 EQUATION5:
Applying the quadratic formula (X=[−B±SQRT(B^2−4AC]/2A) to Equation 3-5 and taking a physically reasonable root gives Equation 3-6: Xd=[Xt+1/(4*K)−SQRT(Xt/(2*K)+1/[…])]/2 EQUATION 6:
Where SQRT ( ) indicates taking the square root of the content of the parentheses. The fluorescence values at λem 530 nm (F530) is a function of Xt and F530=Xd*ε, where “ε” is the fluorescence yield of the dimer. The equation was solved by non-linear least squares using Prism™ software and binding constants determined. Concentrations of the reactants were adjusted for dilution whereas AO concentrations are reported without adjustment for dilution. Fluorescence values (fi) are reported as raw data normalized to scale and not adjusted by a dilution factor following aliquot additions. Absorbance data taken at 468 nm was also used to calculate the Kassoc for the AO-AO dimer using Equation 6.
The error bars shown standard deviation unless obscured by legend symbols (n=4). The results also indicate the effect of a physiological concentration of NaCl [150 mM] on the fluorescence of AO at both λem 530 nm (green) and λem 635 nm (red) over a range of AO concentrations from 0.5 μM to 10.0 μM. At an AO concentration of between 5-6 μM, the amplitude of green fluorescence at λem 530 nm increases abruptly. The red fluorescence (λem 635 nm) also increases abruptly between 5-6 μM. However, the magnitude of the increase at λem 635 nm is proportionally less than that found at λem 530 nm. As the concentration of AO increases from 5 μM to 6 μM, the mean fluorescence values were changed from 457±16 to 5,197 ±289 at λem 530 nm and from 174±4 to 1,371±41 at λem 635 nm (n=4). […] The example shown in FIG. 3-2B depicts the binding plot calculated at λem 530 nm for the molecular association of AO with itself in the absence of and in the presence of NaCl. The association constants (Kassoc) for AO derived from these two plots are 118,000±16,120 M^−1 (R^2=0.98) in the presence of NaCl [150 mM] and 37,410±4,758 M^−1(R^2=0.97) in the absence of NaCl. Error bars denote standard deviation unless hidden by legend symbols (n=4). The presence of 150 mM NaCl has no significant effect on the fluorescence intensity of AO at either λem 530 nm or λem 635 nm at AO concentrations of 6 μM and above.
Association constants were calculated for AO self-association by assuming the fluorescence values derived at λem 530 nm reflect the extent of dimer formation. Association constants (Kassoc) were calculated from the change in mean fluorescence values (delta fluorescence) at λem 530 nm (see FIG. 3-2B). At AO concentrations from 0.5 μM to 5 μM, Kassoc was determined to be 37,410±4,758 M^−1 (R^2=0.97) in the absence of NaCl and 118,000±16,120 M^−1 (R^2=0.98) in the presence of 150 mM NaCl (see FIG. 3-2B). For AO concentrations >5 μM, the association constants were determined to be 46,700±1,807 M^−1 (R^2=0.99) for AO alone and 41,820±3,671 M^−1 (R^2=0.99) for AO in the presence of NaCl. This indicates a significant AO concentration dependent difference in the association constant in the presence of 150 mM NaCl at low AO concentrations (<5 μM) but not a significant difference at AO concentrations above 5 μM.

As for `CN(C)c1ccc2cc3ccc(N(C)C)cc3nc2c1.Cl` [AO, 3,6-bis[dimethylamino]acridine hydrochloride], the “K ± S.D.” value is 118,000±16,120 M^−1 and 118,000 M^−1 (Fluorescence plus NaCl 150 mM, AO [0.5-5.0 μM]); 118,000 ± 16,120 M^−1 (Fluorescence plus NaCl 150 mM, AO [0.5-5.0 μM], listed as AO-AO); 41,820±3,671 M^−1 (Fluorescence plus NaCl, AO [6.0-10.0 μM]); 41,820 ± 3,671 M^−1 (Fluorescence plus NaCl, AO [6.0-10.0 μM], listed as AO-AO); 37,410±4,758 M^−1 and 37,410 M^−1 (Fluorescence, AO [0.5-5.0 μM], absence of NaCl); 37,410 ± 4,758 M^−1 (Fluorescence, AO [0.5-5.0 μM], absence of NaCl, listed as AO-AO). In addition, the “K ± S.D.” value is 46,700±1,807 M^−1 (Fluorescence, AO [6.0-10.0 μM], absence of NaCl) and 46,700 ± 1,807 M^−1 (Fluorescence, AO [6.0-10.0 μM], absence of NaCl, listed as AO-AO).
